Source: patent publication US9527859B2, “Amidopyridine derivative and use thereof” (Mitsubishi Tanabe Pharma Corporation, priority 2012, dated 2016)

Tested on: production of IL-17 in mouse splenocytes stimulated by recombinant mouse interleukin-23
Test: Production of IL-17 induced when mouse splenocytes were stimulated by rm-IL-23 (ELISA)
Type: cell-based
Conditions: Splenocyte, inhibition of IL-17 production, rm-IL-23 1 nmol/L, 72 hours
Protocol: Effect on Production of IL-17 Induced when Mouse Splenocytes were Stimulated by Recombinant Mouse Interleukin-23 (rm-IL-23)
RPMI1640 media (Sigma-Aldrich) were used as a medium, to which 50 units/mL penicillin G potassium/50 μg/mL streptomycin (Gibco) and […] 2-mercaptoethanol (Sigma-Aldrich) were added, and then thereto was added 10% of fetal calf serum (FCS; Cell Culture Technology) which was treated at 56° C. for 30 minutes to be inactivated, and the mixture was used in the Test. The test compound was dissolved in dimethylsulfoxide and then diluted with 10% FCS-containing RPMI1640 medium to a desired concentration to be used. The spleens were aseptically taken out from 6 to 7 week-old male DBA/1J mice (Charles River Japan, Inc.) and a single cell suspension of splenocytes was prepared, which was hemolyzed by hypotonic treatment with a mixed solution of 0.83% aqueous solution of ammonium chloride and Tris-HCl buffer of pH 7.65 (9:1). A cell suspension prepared by using 10% FCS-containing RPMI1640 medium was added to a flat-bottomed 96 well microtestplate (Coaster) at 2×10^5 cells/well. Thereto were added test compounds and rm-IL-23 (R&D systems) were diluted with a medium to 1 to 1,000 nmol/L and 1 nmol/L of the final concentration, respectively, and the mixture was cultured at 37° C., 5% carbon dioxide and 95% air for 72 hours. After completion of the culture, culture supernatant was sampled and production amounts of IL-17 therein were determined by ELISA method. After sampling the supernatant, WST-8 (Seikagaku Corporation) was added at 10 μl/well and cultured at 37° C., 5% carbon dioxide and 95% air for 4 hours. Then, absorbance (O.D.: Optical Density) at 450 nm was measured by a microplate reader and the value was adopted as an index of cell survivability. An inhibition rate was calculated according to the following formula on the basis of an average of production amounts of IL-17 and O.D. values of the well containing a test compound of each concentration. Inhibition (%)=(1−(Average value of well with addition of test compound)/(Average value of well without addition of test compound))×100
Based on the dose-response curve obtained by plotting the inhibition rate in the longitudinal axis and the concentration in the horizontal axis, the concentration of the compound which inhibits the level to 50% of the value of the control group (IC50) (nmol/L) was determined by linear regression analysis.

| Compound | IC50 |
| --- | --- |
| COC(C)C1CCN(c2ncc(NC(=O)c3cnn(-c4ccc(C(F)(F)F)cn4)c3C)cc2C)CC1 (stereo not drawn) [Example 53, N-{6-[4-(1-methoxyethyl)piperidin-1-yl]-5-methylpyridin-3-yl}-5-methyl-1-[5-(trifluoromethyl)pyridin-2-yl]-1H-pyrazole-4-carboxamide] | 51.8 nM |
| Cc1cc(NC(=O)c2cnn(-c3ccc(F)cc3)c2C)cnc1N1CCC(C(C)(C)O)CC1 [Example 54, 1-(4-fluorophenyl)-N-{6-[4-(1-hydroxy-1-methylethyl)piperidin-1-yl]-5-methylpyridin-3-yl}-5-methyl-1H-pyrazole-4-carboxamide] | 51 nM |
| Cc1ccc(-n2ncc(C(=O)Nc3cnc(N4CCC(C(C)(C)O)CC4)c(C)c3)c2C)cc1 [Example 56, N-{6-[4-(1-hydroxy-1-methylethyl)piperidin-1-yl]-5-methylpyridin-3-yl}-5-methyl-1-(4-methylphenyl)-1H-pyrazole-4-carboxamide] | 44.4 nM |
| Cc1ccc(-n2ncc(C(=O)Nc3cnc(N4CCC(CC(C)(C)O)CC4)c(C)c3)c2C)nc1 [Example 57, N-{6-[4-(2-hydroxy-2-methylpropyl)piperidin-1-yl]-5-methylpyridin-3-yl}-5-methyl-1-(5-methylpyridin-2-yl)-1H-pyrazole-4-carboxamide] | 36.7 nM |
| Cc1cc(NC(=O)c2cnn(-c3ncc(Cl)cc3Cl)c2C)cnc1N1CCC(C(C)(C)O)CC1 [Example 59, 1-(3,5-dichloropyridin-2-yl)-N-{6-[4-(1-hydroxy-1-methylethyl)piperidin-1-yl]-5-methylpyridin-3-yl}-5-methyl-1H-pyrazole-4-carboxamide] | 31.8 nM |
| Cc1cc(NC(=O)c2cnn(-c3ccc(C(F)(F)F)cc3)c2C)cnc1N1CCC(C(C)(C)O)CC1 [Example 61, N-{6-[4-(1-hydroxy-1-methylethyl)piperidin-1-yl]-5-methylpyridin-3-yl}-5-methyl-1-[4-(trifluoromethyl)phenyl]-1H-pyrazole-4-carboxamide] | 19.4 nM |
| Cc1cc(NC(=O)c2cnn(-c3ccc(C(F)(F)F)cn3)c2C)cnc1N1CCC(C(C)(C)O)CC1 [Example 62, N-{6-[4-(1-hydroxy-1-methylethyl)piperidin-1-yl]-5-methylpyridin-3-yl}-5-methyl-1-[5-(trifluoromethyl)pyridin-2-yl]-1H-pyrazole-4-carboxamide] | 17 nM |
| Cc1cc(NC(=O)c2cnn(-c3ccc(C(F)(F)F)cn3)c2C)cnc1N1CCC(CC(C)(C)O)CC1 [Example 65, N-{6-[4-(2-hydroxy-2-methylpropyl)piperidin-1-yl]-5-methylpyridin-3-yl}-5-methyl-1-[5-(trifluoromethyl)pyridin-2-yl]-1H-pyrazole-4-carboxamide] | 5.35 nM |
| Cc1c(C(=O)Nc2cnc(N3CCC(=O)CC3)c(C3CC3)c2)cnn1-c1ccc(Cl)cc1 [Example 70, 1-(4-chlorophenyl)-N-[5-cyclopropyl-6-(piperidin-4-on-1-yl)pyridin-3-yl]-5-methyl-1H-pyrazole-4-carboxamide] | 205 nM |
| Cc1c(C(=O)Nc2cnc(N3CCC(CCO)CC3)c(Cl)c2)cnn1-c1ccc(Cl)cc1 [Example 74, N-{5-chloro-6-[4-(2-hydroxyethyl)piperidin-1-yl]pyridin-3-yl}-1-(4-chlorophenyl)-5-methyl-1H-pyrazole-4-carboxamide] | 87.7 nM |
| Cc1cc(NC(=O)c2cnc(-c3ccc(C(F)(F)F)cc3)n2C)cnc1N1CCC(C(C)(C)O)CC1 [Example 76, N-{6-[4-(1-hydroxy-1-methylethyl)piperidin-1-yl]-5-methylpyridin-3-yl}-3-methyl-2-[4-(trifluoromethyl)phenyl]-3H-imidazole-4-carboxamide] | 30.4 nM |
| Cc1cc(NC(=O)c2ccc(-c3ccc(Cl)cc3)s2)cnc1N1CCC(C(C)(C)O)CC1 [Example 78, 5-(4-chlorophenyl)-N-{6-[4-(1-hydroxy-1-methylethyl)piperidin-1-yl]-5-methylpyridin-3-yl}thiophene-2-carboxamide] | 15.6 nM |
| Cc1cc(NC(=O)c2cc(-c3ccc(Cl)cc3)cs2)cnc1N1CCC(C(C)(C)O)CC1 [Example 80, 4-(4-chlorophenyl)-N-{6-[4-(1-hydroxy-1-methylethyl)piperidin-1-yl]-5-methylpyridin-3-yl}thiophene-2-carboxamide] | 185 nM |

Further molecules by falling IC50, results first:

| IC50 | Compound |
| --- | --- |
| 109 nM | Cc1cc(NC(=O)c2c[nH]c(-c3ccc(C(F)(F)F)cc3)n2)cnc1N1CCC(C(C)(C)O)CC1 [Example 75, N-{6-[4-(1-hydroxy-1-methylethyl)piperidin-1-yl]-5-methylpyridin-3-yl}-2-[4-(trifluoromethyl)phenyl]-1H-imidazole-4-carboxamide] |
| 91.1 nM | Cc1cc(NC(=O)c2csc(-c3ccc(Cl)cc3)n2)cnc1N1CCC(C(C)(C)O)CC1 [Example 82, 2-(4-chlorophenyl)-N-{6-[4-(1-hydroxy-1-methylethyl)piperidin-1-yl]-5-methylpyridin-3-yl}thiazole-4-carboxamide] |
| 67.6 nM | Cc1cc(NC(=O)c2cnn(-c3ccc(Cl)cc3)n2)cnc1N1CCC(C(C)(C)O)CC1 [Example 85, 2-(4-chlorophenyl)-N-{6-[4-(1-hydroxy-1-methylethyl)piperidin-1-yl]-5-methylpyridin-3-yl}-2H-[1,2,3]triazole-4-carboxamide] |
| 66.8 nM | Cc1cc(NC(=O)c2cnc(-c3ccc(Cl)cc3)s2)cnc1N1CCC(C(C)(C)O)CC1 [Example 81, 2-(4-chlorophenyl)-N-{6-[4-(1-hydroxy-1-methylethyl)piperidin-1-yl]-5-methylpyridin-3-yl}thiazole-5-carboxamide] |
| 53.1 nM | CC(=O)OC(C)C1CCN(c2ncc(NC(=O)c3cnn(-c4ccc(C(F)(F)F)cn4)c3C)cc2C)CC1 (stereo not drawn) [Example 52, acetic acid {1-[1-(3-methyl-5-{5-methyl-1-[5-(trifluoromethyl)pyridin-2-yl]-1H-pyrazole-4-carboxamide}pyridin-2-yl)piperidin-4-yl]ethyl}ester] |
| 49.6 nM | Cc1cc(NC(=O)c2cnn(-c3ccc(C(F)(F)F)cn3)c2C)cnc1N1CCC(C(C)O)CC1 (stereo not drawn) [Example 55, N-{6-[4-(1-hydroxyethyl)piperidin-1-yl]-5-methylpyridin-3-yl}-5-methyl-1-[5-(trifluoromethyl)pyridin-2-yl]-1H-pyrazole-4-carboxamide] |
| 43.6 nM | Cc1cc(NC(=O)c2csc(-c3ccc(Cl)cc3)c2)cnc1N1CCC(C(C)(C)O)CC1 [Example 79, 2-(4-chlorophenyl)-N-{6-[4-(1-hydroxy-1-methylethyl)piperidin-1-yl]-5-methylpyridin-3-yl}thiophene-4-carboxamide] |
| 33 nM | Cc1cc(NC(=O)c2cnn(-c3ccc(Cl)cn3)c2C)cnc1N1CCC(C(C)(C)O)CC1 [Example 58, 1-(5-chloropyridin-2-yl)-N-{6-[4-(1-hydroxy-1-methylethyl)piperidin-1-yl]-5-methylpyridin-3-yl}-5-methyl-1H-pyrazole-4-carboxamide] |
| 30.4 nM | Cc1cc(NC(=O)c2cnn(-c3ccc(F)cn3)c2C)cnc1N1CCC(CC(C)(C)O)CC1 [Example 60, 1-(5-fluoropyridin-2-yl)-N-{6-[4-(2-hydroxy-2-methylpropyl)piperidin-1-yl]-5-methylpyridin-3-yl}-5-methyl-1H-pyrazole-4-carboxamide] |
| 15.6 nM | Cc1cc(NC(=O)c2cnn(-c3ccc(Cl)cc3)c2C)cnc1N1CCC(C(C)(C)O)CC1 [Example 63, 1-(4-chlorophenyl)-N-{6-[4-(1-hydroxy-1-methylethyl)piperidin-1-yl]-5-methylpyridin-3-yl}-5-methyl-1H-pyrazole-4-carboxamide] |
| 12 nM | Cc1cc(NC(=O)c2cnn(-c3ccc(C4CC4)cn3)c2C)cnc1N1CCC(CC(C)(C)O)CC1 [Example 64, 1-(5-cyclopropylpyridin-2-yl)-N-{6-[4-(2-hydroxy-2-methylpropyl)piperidin-1-yl]-5-methylpyridin-3-yl}-5-methyl-1H-pyrazole-4-carboxamide] |
